Earlier results, collected in PubChem BioAssay AID1259409 (Chemical Carcinogenesis Research Information System (CCRIS), 2018).
“And” between values parts separate entries of the source, which are not always exact repeats. Identical values can stand only once.

System: rodent chemically induced tumor inhibition, incidence and multiplicity
Assay: CCRIS tumor inhibitor studies

Structure (SMILES): CCC[Se]C#N
- tumour outcome (control, treated, inhibition, significance) (Carcinogen: 7,12-DIMETHYLBENZ[A]ANTHRACENE, 57-97-6, Dose [Inhibitor]: 0.1, 2 PPM (SELENIUM) IN DIET FOR 3 WK BEGINNING 2 WK PRIOR TO CARCINOGEN DOSE (STUDY DURATION: 25 WK), Route [Inhibitor]: ORAL, Species: RAT, Strain/Sex: SPRAGUE-DAWLEY/FEMALE, Target Tissue: Type of Lesion: MAMMARY GLAND: TUMOR, Dose [Carcinogen]: 10 MG ONCE, Promoter: NONE USED): 25/30 (83%), 13/30 (43%), 48%, p<0.05

Structure (SMILES): O=P(O)(O)O
- tumour outcome (control, treated, inhibition, significance) (Carcinogen: N-ETHYL-N-HYDROXYETHYLNITROSAMINE, 13147-25-6, Dose [Inhibitor]: 0, 10% IN DIET OF UNILATERALLY NEPHRECTOMIZED RATS BEGINNING POST CARCINOGEN TREATMENT AND CONTINUING FOR 18 WK (STUDY D, Route [Inhibitor]: ORAL, Species: RAT, Strain/Sex: WISTAR/MALE, Target Tissue: Type of Lesion: KIDNEY: RENAL CELL TUMOR, Dose [Carcinogen]: 1000 PPM IN DIET FOR 2 WK, Promoter: NONE USED): 5/20 (25%), 3/18 (17%), 32%, not calculated

Structure (SMILES): CC1=CCC(C(C)(C)O)CC1O (centres undefined)
- tumour outcome (control, treated, inhibition, significance) (Carcinogen: 7,12-DIMETHYLBENZ[A]ANTHRACENE, 57-97-6, Dose [Inhibitor]: 0, 1% IN DIET FOR 3 WK BEGINNING 2 WK PRIOR TO CARCINOGEN DOSE (STUDY DURATION: 20 WK), Route [Inhibitor]: ORAL, Species: RAT, Strain/Sex: WISTAR/FEMALE, Target Tissue: Type of Lesion: MAMMARY GLAND: CARCINOMA, Dose [Carcinogen]: 50 MG/KG IN SESAME OIL ONCE, Promoter: NONE USED): 80%, 52%, 35%, not calculated and 98%, 84%, 14%, not significant

Structure (SMILES): Oc1ccccc1
- tumour outcome (control, treated, inhibition, significance) (Carcinogen: BENZO[A]PYRENE, 50-32-8, Dose [Inhibitor]: 0.03 MMOL/G OF DIET STARTING 8 D BEFORE AND CONTINUING THROUGH 3 D AFTER LAST CARCINOGEN TREATMENT (STUDY DURATION: 148, Route [Inhibitor]: ORAL, Species: MOUSE, Strain/Sex: ICR/FEMALE, Target Tissue: Type of Lesion: FORESTOMACH: NEOPLASM, Dose [Carcinogen]: 1 MG IN 0.2 ML CORN OIL 2/WK FOR 4 WK, Promoter: NONE USED): 100%, 100%, 0%, not significant
- tumour outcome (control, treated, inhibition, significance) (Carcinogen: BENZO[A]PYRENE, 50-32-8, Dose [Inhibitor]: 3 MG IN 0.1 ML ACETONE 3/WK ADMINISTERED SIMULTANEOUSLY WITH CARCINOGEN FOR DU RATION OF STUDY (STUDY DURATION: 368 D), Route [Inhibitor]: DERMAL, Species: MOUSE, Strain/Sex: ICR/FEMALE, Target Tissue: Type of Lesion: SKIN: PAPILLOMA, Dose [Carcinogen]: 5 UG IN 0.1 ML ACETONE 3/WK FOR DURATION OF STUDY, Promoter: NONE USED): 14/50 (28%), 7/50 (14%), 50%, not calculated
- tumour outcome (control, treated, inhibition, significance) (Carcinogen: BENZO[A]PYRENE, 50-32-8, Dose [Inhibitor]: 3 MG IN 0.1 ML ACETONE 3/WK ADMINISTERED SIMULTANEOUSLY WITH CARCINOGEN FOR DURATION OF STUDY (STUDY DURATION: 368 D), Route [Inhibitor]: DERMAL, Species: MOUSE, Strain/Sex: ICR/FEMALE, Target Tissue: Type of Lesion: SKIN: SQUAMOUS CARCINOMA, Dose [Carcinogen]: 5 UG IN 0.1 ML ACETONE 3/WK FOR DURATION OF STUDY, Promoter: NONE USED): 10/50 (20%), 3/50 (6%), 70%, not calculated

Structure (SMILES): O=C(CBr)c1ccc(Br)cc1
- tumour outcome (control, treated, inhibition, significance) (Carcinogen: 7,12-DIMETHYLBENZ[A]ANTHRACENE, 57-97-6, Dose [Inhibitor]: 10 UMOL APPLIED 30-40 MIN BEFORE EACH TPA TREATMENT AND CONCURRENTLY WITH TPA (STUDY DURATION: 18 WK), Route [Inhibitor]: DERMAL, Species: MOUSE, Strain/Sex: CD-1/FEMALE, Target Tissue: Type of Lesion: SKIN: PAPILLOMA, Dose [Carcinogen]: 200 NMOL ONCE, Promoter: 12-O-TETRADECANOYLPHORBOL-13-ACETATE, 16561-29-8): 96%, 57%, 41%, not calculated
- tumour outcome (control, treated, inhibition, significance) (Carcinogen: N-NITROSODIETHYLAMINE, 55-18-5, 2-ACETYLAMINOFLUORENE, 53-93-6, CARBON TETRACHLORIDE, 56-23-5, Carcinogen: N-NITROSODIETHYLAMINE, 55-18-5, 2-ACETYLAMINOFLUORENE, 53-93-6, CARBON TETRACHLORIDE, 56-23-5, Dose [Inhibitor]: 0, 0.75% IN DIET FOR 29 WK ADMINISTERED TO RATS BEARING PERSISTENT NODULES FOLLOWING CARCINOGEN TREATMENT (STUDY DURATIO, Route [Inhibitor]: ORAL, Species: RAT, Strain/Sex: F344/MALE, Target Tissue: Type of Lesion: LIVER: HEPATOCELLULAR CARCINOMA, Dose [Carcinogen]: 200 MG/KG BW DEN ONCE, 0.002% 2-AAF IN DIET FOR 2 WK, 1 MG/KG BW CCL4 MIDWAY IN 2-AAF TREATMENT, Dose [Carcinogen]: 200 MG/KG BW DEN ONCE, 0.002% 2-AAF IN DIET FOR 2 WK, 1 MG/KG BW CCL4 MIDWAY IN 2-AAF TREATMENT, Promoter: NONE USED): 7/8 (88%), 11/11 (100%), -12%, not significant
- tumour outcome (control, treated, inhibition, significance) (Carcinogen: N-NITROSODIETHYLAMINE, 55-18-5, 2-ACETYLAMINOFLUORENE, 53-93-6, CARBON TETRACHLORIDE, 56-23-5, Carcinogen: N-NITROSODIETHYLAMINE, 55-18-5, 2-ACETYLAMINOFLUORENE, 53-93-6, CARBON TETRACHLORIDE, 56-23-5, Dose [Inhibitor]: 0, 0.75% IN DIET FOR 29 WK ADMINISTERED TO RATS BEARING PERSISTENT NODULES FOLLOWING CARCINOGEN TREATMENT (STUDY DURATIO, Route [Inhibitor]: ORAL, Species: RAT, Strain/Sex: F344/MALE, Target Tissue: Type of Lesion: LIVER: HEPATOCELLULAR CARCINOMA, Dose [Carcinogen]: 200 MG/KG BW DEN ONCE, 0.002% 2-AAF IN DIET FOR 2 WK, 1 ML/KG BW CCL4 MIDWAY IN 2-AAF TREATMENT, Dose [Carcinogen]: 200 MG/KG BW DEN ONCE, 0.002% 2-AAF IN DIET FOR 2 WK, 1 ML/KG BW CCL4 MIDWAY IN 2-AAF TREATMENT, Promoter: PHENOBARBITAL, 50-06-6): 12/12 (100%), 13/14 (93%), 7%, not significant
